Literature values as cited in patent US10376520B2, “Methods for the treatment of cardiovascular disorders” (Galapagos NV, priority 2015, dated 2019).
Read-outs that look alike come from different tables or passages of the source.

What was measured:
[1] = system: RA patient; details: 10 mg bid for 6 weeks in RA patient; cited from earlier work
[2] = system: patients; details: first 3 months of exposure in the controlled clinical trials, cited from earlier work

C[C@@H]1CCN(C(=O)CC#N)C[C@@H]1N(C)c1ncnc2[nH]ccc12 [Tofacitinib]
atherogenic index before and after treatment (unchanged) [1]: about 3.5
mean [HDL] increased by ([2]; 5 mg twice daily arm): 10%
mean [LDL] increased by ([2]; 5 mg twice daily arm): 15%
mean [HDL] increased by ([2]; 10 mg twice daily arm): 12%
mean [LDL] increased by ([2]; 10 mg twice daily arm): 19%
mean [LDL]/[HDL] ratios [2]: essentially unchanged
